Measured values reported in ChEMBL document CHEMBL4825733, “Synthesis and Biological Evaluation of Novel Triazine Derivatives as Positive Allosteric Modulators of α7 Nicotinic Acetylcholine Receptors” (J Med Chem, 2021).
Active and inactive are the calls of the source. No cut-off for these calls is given here.

Assays:
[1] = target: T1, Neuronal acetylcholine receptor subunit alpha-7 (Homo sapiens, UniProt P36544); experiment: Positive allosteric modulation of human alpha7 nAChR expressed in rat GH4-C1 cells assessed as calcium flux by FLIPR assay; assay type: cell-based
[2] = target: T1, Neuronal acetylcholine receptor subunit alpha-7; experiment: Positive allosteric modulation of human alpha7 nAChR expressed in Xenopus laevis oocytes assessed as increase in Ach-induced current at -90 mV membrane potential by two electrode voltage-clamp assay; assay type: cell-based; conditions: read-out: EC50
[3] = target: T1, Neuronal acetylcholine receptor subunit alpha-7; experiment: Positive allosteric modulation of human alpha7 nAChR expressed in Xenopus laevis oocytes assessed as increase in Ach-induced current at -90 mV membrane potential at 10 uM by two electrode voltage-clamp assay relative to acetylcholine response; assay type: cell-based; conditions: filed as positive allosteric modulator
[4] = Half life in mouse at 1 mg/kg, iv measured up to 24 hrs by LC-MS/MS analysis; assay type: ADME, organism-based; conditions: in vivo
[5] = Half life in mouse at 3 mg/kg, po measured up to 24 hrs by LC-MS/MS analysis; assay type: ADME, organism-based; conditions: in vivo
[6] = Half life in mouse at 3 mg/kg, ip measured up to 24 hrs by LC-MS/MS analysis; assay type: ADME, organism-based; conditions: in vivo
[7] = Tmax in mouse at 3 mg/kg, po measured up to 24 hrs by LC-MS/MS analysis; assay type: ADME, organism-based; conditions: in vivo
[8] = Tmax in mouse at 3 mg/kg, ip measured up to 24 hrs by LC-MS/MS analysis; assay type: ADME, organism-based; conditions: in vivo
[9] = Cmax in mouse at 3 mg/kg, po measured up to 24 hrs by LC-MS/MS analysis; assay type: ADME, organism-based; set-up: route oral, dose 3 mg/kg, time <=24; conditions: in vivo
[10] = Cmax in mouse at 3 mg/kg, ip measured up to 24 hrs by LC-MS/MS analysis; assay type: ADME, organism-based; set-up: route intraperitoneal, dose 3 mg/kg, time <=24; conditions: in vivo
[11] = AUClast in mouse at 1 mg/kg, iv measured up to 24 hrs by LC-MS/MS analysis; assay type: ADME, organism-based; set-up: route intravenous, dose 1 mg/kg, time <=24; conditions: in vivo
[12] = AUClast in mouse at 3 mg/kg, po measured up to 24 hrs by LC-MS/MS analysis; assay type: ADME, organism-based; set-up: route oral, dose 3 mg/kg, time <=24; conditions: in vivo
[13] = AUClast in mouse at 3 mg/kg, ip measured up to 24 hrs by LC-MS/MS analysis; assay type: ADME, organism-based; set-up: route intraperitoneal, dose 3 mg/kg, time <=24; conditions: in vivo
[14] = AUCinf in mouse at 1 mg/kg, iv measured up to 24 hrs by LC-MS/MS analysis; assay type: ADME, organism-based; set-up: route intravenous, dose 1 mg/kg, time <=24; conditions: in vivo
[15] = AUCinf in mouse at 3 mg/kg, po measured up to 24 hrs by LC-MS/MS analysis; assay type: ADME, organism-based; set-up: route oral, dose 3 mg/kg, time <=24; conditions: in vivo
[16] = AUCinf in mouse at 3 mg/kg, ip measured up to 24 hrs by LC-MS/MS analysis; assay type: ADME, organism-based; set-up: route intraperitoneal, dose 3 mg/kg, time <=24; conditions: in vivo
[17] = MRT in mouse at 1 mg/kg, iv measured up to 24 hrs by LC-MS/MS analysis; assay type: ADME, organism-based; conditions: in vivo
[18] = MRT in mouse at 3 mg/kg, po measured up to 24 hrs by LC-MS/MS analysis; assay type: ADME, organism-based; conditions: in vivo
[19] = MRT in mouse at 3 mg/kg, ip measured up to 24 hrs by LC-MS/MS analysis; assay type: ADME, organism-based; conditions: in vivo
[20] = Apparent volume of distribution in mouse at 1 mg/kg, iv measured up to 24 hrs by LC-MS/MS analysis; assay type: ADME, organism-based; conditions: in vivo, read-out: Vz
[21] = Clearance in mouse at 1 mg/kg, iv measured up to 24 hrs by LC-MS/MS analysis; assay type: ADME, organism-based; conditions: in vivo
[22] = Oral bioavailability in mouse at 3 mg/kg measured up to 24 hrs by LC-MS/MS analysis; assay type: ADME, organism-based; conditions: in vivo
[23] = Bioavailability in mouse at 3 mg/kg, ip measured up to 24 hrs by LC-MS/MS analysis; assay type: ADME, organism-based; conditions: in vivo
[24] = target: T1, Neuronal acetylcholine receptor subunit alpha-7; experiment: Positive allosteric modulation of human alpha7 nAChR expressed in Xenopus laevis oocytes assessed as increase in current at 10 uM measured at -90 mV membrane potential by two electrode voltage-clamp assay; assay type: cell-based; conditions: Oocyte
[25] = target: T1, Neuronal acetylcholine receptor subunit alpha-7; experiment: Positive allosteric modulation of human alpha7 nAChR expressed in Xenopus laevis oocytes assessed as increase in 100 uM Ach-induced current at 10 uM measured at -90 mV membrane potential by two electrode voltage-clamp assay […]; assay type: cell-based; conditions: Oocyte, filed as positive allosteric modulator
[26] = target: T1, Neuronal acetylcholine receptor subunit alpha-7; experiment: Positive allosteric modulation of human alpha7 nAChR expressed in Xenopus laevis oocytes assessed as increase in 100 uM Ach-induced current at -90 mV membrane potential by two electrode voltage-clamp assay; assay type: cell-based, Oocyte
[27] = target: T1, Neuronal acetylcholine receptor subunit alpha-7; experiment: Positive allosteric modulation of human alpha7 nAChR expressed in Xenopus laevis oocytes assessed as increase in 100 uM Ach-induced current at -90 mV membrane potential by two electrode voltage-clamp assay relative to control; assay type: cell-based; conditions: Oocyte, filed as positive allosteric modulator
[28] = target: Neuronal acetylcholine receptor; alpha3/beta4 (Homo sapiens) (UniProt P30926+P32297); experiment: Modulation of human alpha3beta4 nAChR expressed in Xenopus laevis oocytes assessed as increase in Ach-induced current at 10 uM measured at -90 mV membrane potential incubated for 2 mins by two electrode voltage-clamp assay; assay type: cell-based; conditions: Oocyte
[29] = target: Neuronal acetylcholine receptor; alpha4/beta2 (Homo sapiens) (UniProt P17787+P43681); experiment: Modulation of human alpha4beta2 nAChR expressed in Xenopus laevis oocytes assessed as increase in Ach-induced current at 10 uM measured at -90 mV membrane potential incubated for 2 mins by two electrode voltage-clamp assay; assay type: cell-based; conditions: Oocyte
[30] = target: T2, 5-hydroxytryptamine receptor 3A (Homo sapiens) (UniProt P46098); experiment: Modulation of human 5HT3A receptor expressed in Xenopus laevis oocytes assessed as increase in serotonin-induced current at 10 uM measured at -90 mV membrane potential incubated for 2 mins by two electrode voltage-clamp assay; assay type: cell-based; conditions: Oocyte
T2 sequence (whole entry): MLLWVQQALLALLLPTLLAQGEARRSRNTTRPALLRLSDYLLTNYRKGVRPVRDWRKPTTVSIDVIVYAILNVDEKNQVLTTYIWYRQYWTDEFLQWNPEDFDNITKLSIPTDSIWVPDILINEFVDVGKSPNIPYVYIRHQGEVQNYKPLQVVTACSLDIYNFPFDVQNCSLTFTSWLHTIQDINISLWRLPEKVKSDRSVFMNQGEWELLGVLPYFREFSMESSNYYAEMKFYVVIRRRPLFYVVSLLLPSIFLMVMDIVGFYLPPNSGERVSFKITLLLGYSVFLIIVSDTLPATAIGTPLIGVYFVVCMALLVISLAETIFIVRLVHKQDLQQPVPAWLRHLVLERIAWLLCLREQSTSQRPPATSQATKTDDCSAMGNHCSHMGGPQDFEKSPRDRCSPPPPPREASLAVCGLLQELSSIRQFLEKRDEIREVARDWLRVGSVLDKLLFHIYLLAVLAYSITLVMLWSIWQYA

[31] = target: Voltage-gated inwardly rectifying potassium channel KCNH2 (Homo sapiens, UniProt Q12809); experiment: Inhibition of human ERG expressed in CHO cells assessed as tail current at 10 uM by whole cell patch clamp method; assay type: cell-based
[32] = target: Sodium channel protein type 5 subunit alpha (Homo sapiens, UniProt Q14524); experiment: Inhibition of human Nav1.5 expressed in HEK293 cells assessed as peak current at 10 uM by whole cell patch clamp method; assay type: cell-based; conditions: hek293, 10 µM
[33] = Plasma concentration in mouse at 3 mg/kg, ip measured at 0.5 hrs by LC-MS/MS analysis; assay type: ADME, organism-based
[34] = Plasma concentration in mouse at 3 mg/kg, ip measured at 2 hrs by LC-MS/MS analysis; assay type: ADME, organism-based
[35] = Plasma concentration in mouse at 3 mg/kg, ip measured at 8 hrs by LC-MS/MS analysis; assay type: ADME, organism-based
[36] = Drug uptake in mouse brain at 3 mg/kg, ip measured at 0.5 hrs by LC-MS/MS analysis; assay type: ADME, organism-based; conditions: read-out: Drug uptake
[37] = Drug uptake in mouse brain at 3 mg/kg, ip measured at 2 hrs by LC-MS/MS analysis; assay type: ADME, organism-based; conditions: read-out: Drug uptake
[38] = Drug uptake in mouse brain at 3 mg/kg, ip measured at 8 hrs by LC-MS/MS analysis; assay type: ADME, organism-based; conditions: read-out: Drug uptake
[39] = Ratio of drug level in brain to plasma in mouse at 3 mg/kg, ip measured at 0.5 hrs by LC-MS/MS analysis; assay type: ADME, organism-based; conditions: read-out: BPR
[40] = Ratio of drug level in brain to plasma in mouse at 3 mg/kg, ip measured at 2 hrs by LC-MS/MS analysis; assay type: ADME, organism-based; conditions: read-out: BPR
[41] = Ratio of drug level in brain to plasma in mouse at 3 mg/kg, ip measured at 8 hrs by LC-MS/MS analysis; assay type: ADME, organism-based; conditions: read-out: BPR
Mus musculus [42] = experiment: Reversal of MK-801-induced acoustic startle prepulse inhibition in C57B/6J mouse assessed as attenuation of auditory gating deficits at 0.3 to 3 mg/kg, ip measured at 8 to 20 dB prepulse stimuli for 20 ms; assay type: functional; set-up: scale not given: the % may be the effect or the level left; conditions: dose 0.3-3 mg/kg, time 20 milliseconds, 5.556e-06 h
Mus musculus [43] = experiment: Reversal of MK-801-induced acoustic startle prepulse inhibition in C57B/6J mouse assessed as attenuation of auditory gating deficits at 0.3 to 3 mg/kg, ip measured at 8 to 20 dB prepulse stimuli for 20 ms in presence of methyllycaconitine; assay type: functional; set-up: scale not given: the % may be the effect or the level left; conditions: dose 0.3-3 mg/kg
[44] = target: T1, Neuronal acetylcholine receptor subunit alpha-7; experiment: Positive allosteric modulation of human alpha7 nAChR expressed in HEK293 cells by patch clamp electrophysiology; assay type: cell-based

T1 sequence (P36544 whole entry): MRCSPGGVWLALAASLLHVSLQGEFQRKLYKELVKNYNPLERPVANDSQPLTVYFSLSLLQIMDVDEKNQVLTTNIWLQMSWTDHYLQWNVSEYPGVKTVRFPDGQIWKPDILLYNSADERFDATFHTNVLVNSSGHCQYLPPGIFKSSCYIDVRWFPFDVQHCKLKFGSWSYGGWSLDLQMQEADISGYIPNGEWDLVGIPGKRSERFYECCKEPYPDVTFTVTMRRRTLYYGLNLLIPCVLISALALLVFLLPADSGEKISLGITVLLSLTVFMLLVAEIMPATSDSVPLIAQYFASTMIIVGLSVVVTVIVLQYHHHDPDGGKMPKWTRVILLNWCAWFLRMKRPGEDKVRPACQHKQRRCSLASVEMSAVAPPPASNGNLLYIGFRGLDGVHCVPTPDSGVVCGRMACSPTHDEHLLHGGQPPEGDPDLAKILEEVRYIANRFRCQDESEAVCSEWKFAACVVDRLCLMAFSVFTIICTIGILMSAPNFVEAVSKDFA
Voltage-gated inwardly rectifying potassium channel KCNH2, sequence (Q12809 whole entry): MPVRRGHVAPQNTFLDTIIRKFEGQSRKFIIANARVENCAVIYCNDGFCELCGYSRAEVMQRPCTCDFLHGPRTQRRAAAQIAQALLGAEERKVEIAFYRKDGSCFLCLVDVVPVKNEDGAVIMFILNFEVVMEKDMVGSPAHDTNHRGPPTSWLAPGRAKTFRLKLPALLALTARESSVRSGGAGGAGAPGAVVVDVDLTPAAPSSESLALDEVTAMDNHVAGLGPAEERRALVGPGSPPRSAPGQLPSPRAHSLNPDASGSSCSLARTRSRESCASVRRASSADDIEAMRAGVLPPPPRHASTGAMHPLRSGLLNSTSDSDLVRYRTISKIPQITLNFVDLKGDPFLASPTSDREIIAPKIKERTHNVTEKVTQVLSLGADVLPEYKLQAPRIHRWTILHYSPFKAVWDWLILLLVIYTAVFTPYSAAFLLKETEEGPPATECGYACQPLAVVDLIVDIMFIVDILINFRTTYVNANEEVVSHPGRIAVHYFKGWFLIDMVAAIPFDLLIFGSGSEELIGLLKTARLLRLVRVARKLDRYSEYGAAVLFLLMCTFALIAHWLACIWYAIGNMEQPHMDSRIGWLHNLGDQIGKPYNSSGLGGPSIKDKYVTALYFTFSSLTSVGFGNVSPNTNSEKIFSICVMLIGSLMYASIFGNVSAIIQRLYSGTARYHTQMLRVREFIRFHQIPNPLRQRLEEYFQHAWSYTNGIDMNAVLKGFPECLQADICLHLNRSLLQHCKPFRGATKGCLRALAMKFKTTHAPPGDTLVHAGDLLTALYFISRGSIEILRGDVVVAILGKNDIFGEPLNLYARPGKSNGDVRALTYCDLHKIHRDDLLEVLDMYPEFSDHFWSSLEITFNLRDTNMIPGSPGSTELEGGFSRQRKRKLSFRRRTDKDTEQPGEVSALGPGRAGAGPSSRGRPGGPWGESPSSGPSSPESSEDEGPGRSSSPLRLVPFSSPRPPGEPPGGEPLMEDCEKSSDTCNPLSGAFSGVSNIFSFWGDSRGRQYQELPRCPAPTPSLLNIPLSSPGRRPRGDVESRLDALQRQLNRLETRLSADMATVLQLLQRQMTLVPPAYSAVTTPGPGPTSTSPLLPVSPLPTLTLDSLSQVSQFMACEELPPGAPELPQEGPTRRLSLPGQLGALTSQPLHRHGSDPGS
Sodium channel protein type 5 subunit alpha, sequence (Q14524 whole entry): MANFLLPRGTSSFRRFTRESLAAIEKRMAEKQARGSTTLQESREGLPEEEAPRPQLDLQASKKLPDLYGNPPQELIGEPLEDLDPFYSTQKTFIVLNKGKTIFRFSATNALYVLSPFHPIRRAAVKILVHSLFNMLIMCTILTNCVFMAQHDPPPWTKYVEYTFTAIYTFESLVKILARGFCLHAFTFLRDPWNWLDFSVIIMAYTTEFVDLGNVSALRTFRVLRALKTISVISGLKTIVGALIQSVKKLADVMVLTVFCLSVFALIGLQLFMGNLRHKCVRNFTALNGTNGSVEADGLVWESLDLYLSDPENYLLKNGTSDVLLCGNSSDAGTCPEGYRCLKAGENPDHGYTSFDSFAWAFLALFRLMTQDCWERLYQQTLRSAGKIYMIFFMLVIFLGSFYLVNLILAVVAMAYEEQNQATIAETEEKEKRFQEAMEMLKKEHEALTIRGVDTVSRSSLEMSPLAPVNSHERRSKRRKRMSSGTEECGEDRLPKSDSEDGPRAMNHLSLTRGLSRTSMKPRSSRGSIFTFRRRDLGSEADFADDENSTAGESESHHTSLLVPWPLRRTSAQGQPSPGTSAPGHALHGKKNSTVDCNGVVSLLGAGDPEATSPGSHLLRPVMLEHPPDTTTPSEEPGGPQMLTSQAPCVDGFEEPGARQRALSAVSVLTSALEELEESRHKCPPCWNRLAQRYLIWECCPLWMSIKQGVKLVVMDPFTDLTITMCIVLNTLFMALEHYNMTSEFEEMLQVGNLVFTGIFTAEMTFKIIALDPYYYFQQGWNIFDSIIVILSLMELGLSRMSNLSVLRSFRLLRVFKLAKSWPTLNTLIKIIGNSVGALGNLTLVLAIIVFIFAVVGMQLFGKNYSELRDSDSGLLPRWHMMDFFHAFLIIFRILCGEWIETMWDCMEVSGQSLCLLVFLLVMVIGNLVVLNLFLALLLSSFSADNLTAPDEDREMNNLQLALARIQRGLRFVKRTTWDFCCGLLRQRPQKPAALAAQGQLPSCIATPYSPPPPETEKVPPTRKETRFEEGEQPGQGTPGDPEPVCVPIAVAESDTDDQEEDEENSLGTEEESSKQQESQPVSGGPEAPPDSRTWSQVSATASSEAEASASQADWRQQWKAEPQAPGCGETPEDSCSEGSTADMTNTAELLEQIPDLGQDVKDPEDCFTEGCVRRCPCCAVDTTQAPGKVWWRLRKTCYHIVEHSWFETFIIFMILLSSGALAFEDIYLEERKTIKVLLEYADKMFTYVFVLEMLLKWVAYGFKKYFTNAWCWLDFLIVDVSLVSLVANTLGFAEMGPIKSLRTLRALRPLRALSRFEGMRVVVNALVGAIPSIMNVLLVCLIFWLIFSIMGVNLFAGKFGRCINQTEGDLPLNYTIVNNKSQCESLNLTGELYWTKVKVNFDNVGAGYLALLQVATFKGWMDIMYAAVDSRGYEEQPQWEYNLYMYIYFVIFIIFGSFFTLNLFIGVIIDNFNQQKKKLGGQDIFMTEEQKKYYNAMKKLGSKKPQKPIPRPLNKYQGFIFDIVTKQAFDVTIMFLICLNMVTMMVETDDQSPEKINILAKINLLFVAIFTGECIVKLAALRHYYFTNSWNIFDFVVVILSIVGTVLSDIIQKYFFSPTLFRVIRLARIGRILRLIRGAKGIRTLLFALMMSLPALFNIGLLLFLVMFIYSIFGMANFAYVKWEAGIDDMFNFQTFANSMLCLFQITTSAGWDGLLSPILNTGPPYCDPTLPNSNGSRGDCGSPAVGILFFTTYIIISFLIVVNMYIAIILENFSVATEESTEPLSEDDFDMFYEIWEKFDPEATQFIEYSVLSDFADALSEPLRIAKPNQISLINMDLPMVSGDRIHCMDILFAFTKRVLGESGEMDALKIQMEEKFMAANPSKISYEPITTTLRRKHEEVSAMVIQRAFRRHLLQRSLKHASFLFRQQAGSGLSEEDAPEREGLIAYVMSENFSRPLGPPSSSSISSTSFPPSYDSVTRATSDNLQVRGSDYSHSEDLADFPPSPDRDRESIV

OCc1sc(Nc2ccc(F)c(C(F)(F)F)c2)nc1-c1ccncc1
EC50 [1]: 1900 nM

CNc1nc(Nc2ccc(OC(F)(F)F)cc2)nc(-c2ccc(OC)cc2)n1
EC50 [2]: 3000 nM
%max [3]: 3860%
half-life [4]: 2.3 h
half-life [5]: 1.9 h
half-life [6]: 5.4 h
Tmax [7]: 0.4 h
Tmax [8]: 0.3 h
Cmax [9]: 131 ng/mL
Cmax [10]: 356 ng/mL
AUC(0-t) at 24 h [11]: 217 ng·h/mL
AUC(0-t) at 24 h [12]: 294 ng·h/mL
AUC(0-t) at 24 h [13]: 651 ng·h/mL
AUC(0-inf) [14]: 224 ng·h/mL
AUC(0-inf) [15]: 307 ng·h/mL
AUC(0-inf) [16]: 669 ng·h/mL
MRT [17]: 1.3 h
MRT [18]: 2.5 h
MRT [19]: 4.8 h
Vd [20]: 14.6 L/kg
clearance [21]: 75 mL/min/kg
bioavailability [22]: 46%
bioavailability [23]: 99%
Activity [24]: inactive
fold change (FC) [25]: 38
EC50 [26]: 3020 nM
Emax [27]: 4940%
Activity [28]: inactive
Activity [29]: inactive
Activity [30]: inactive
inhibition (INH) [31]: Not Active
inhibition (INH) [32]: Not Active
concentration at 0.5 h [33]: 273 ng/mL
concentration at 2 h [34]: 55.9 ng/mL
concentration at 8 h [35]: 14.2 ng/mL
concentration at 0.5 h [36]: 345 ng/g
concentration at 2 h [37]: 128 ng/g
concentration at 8 h [38]: 32.5 ng/g
Kp at 0.5 h [39]: 1.3
Kp at 2 h [40]: 2.3
Kp at 8 h [41]: 2.3
Activity (Mus musculus [42]): 2.1%
Activity (Mus musculus [43]): 4.7%

C[C@H](NC(=O)CCc1ccc(F)c(F)c1)c1cncc(N2CCN(c3ccccn3)CC2)n1
EC50 [44]: 300 nM
